For one compound, Km results are on record in PMC6983366, “A de novo peroxidase is also a promiscuous yet stereoselective carbene transferase” (Proceedings of the National Academy of Sciences of the …, 2020).

SMILES strings stand for the structures.

For assay [1], the system named is T1, C45.
T1 construct: de novo 4-helix bundle with covalently attached heme C
Kind of assay: stopped-flow UV/visible kinetics of heme carbene formation. It counts as biochemical, synthetic construct. The following applies: ferrous protein, anaerobic, pH 8.6, 100 mM KCl, 20 mM CHES, 5 °C, ethanol present; no acceptor; single-turnover metallocarbenoid formation; covalent heme adduct; read-out: K1 (pseudo-Michaelis constant).

Assay [2] concerns the target T2, Rma-TDE (Rhodothermus marinus, UniProt B3FQS5, V103T/M128D/M131E).
T2 construct: gene cytC; engineered triple variant TDE of c-type cytochrome; synthetic gene, periplasmic expression from pSHT in E. coli T7 Express
Described as above. The class given is biochemical. The conditions noted are these: read-out: K1 (pseudo-Michaelis constant); ferrous protein, anaerobic, pH 8.6, 100 mM KCl, 20 mM CHES, 5 °C, ethanol present; no acceptor; single-turnover metallocarbenoid formation; covalent heme adduct.

T2 sequence (B3FQS5 entry or part of it V103T/M128D/M131E): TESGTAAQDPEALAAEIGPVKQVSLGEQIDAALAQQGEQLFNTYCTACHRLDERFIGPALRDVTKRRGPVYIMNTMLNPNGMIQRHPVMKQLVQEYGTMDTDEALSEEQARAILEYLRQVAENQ

As for `CCOC(=O)C=[N+]=[N-]` [EDA], the Km turned out to be 74 µM in assay [1] and 490 µM in assay [2].
